Laboratory results published in US11420970B1 (NOVARTIS AG, priority 2019, dated 2022).

Key:
NSD2 [1-1365] = NSD2 [1-1365] (Homo sapiens (Human), UniProt O96028); assay: LC-MS/MS-based NSD2 enzymatic assay (SAH production); type: biochemical; settings: NSD2 biochemical activity, class symbols; read-out: NSD2 IC50
Outline: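 Full-length NSD2 [1-1365] (8 nM final) with 1 μM SAM and 400 nM mouse-liver nucleosome in Tris pH 8.0 buffer; inhibitor preincubated 20 min with enzyme/SAM before nucleosome addition. Reaction 90 min at room temperature, TFA-quenched; SAH quantified by LC-MS/MS against d4-SAH internal standard and SAH standard curve.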

[1] = tested on: cellular H3K36me2 level in thyroid carcinoma cell line CGTH-W-1 (NSD2 E1099K); assay: H3K36me2 cellular ELISA assay in CGTH-W-1 line; type: cell-based; settings: Homo sapiens, CGTH-W-1, 72 h, read-out: H3K36me2 ELISA in CGTH-W-1
Protocol: H3K36Me2 Cellular ELISA Assay in CGTH-W-1 Line
An ELISA (enzyme-linked immunosorbent assay) based assay was used to test the ability of candidate compound to reduce cellular H3K36me2 level in thyroid carcinoma cell line CGTH-W-1, carrying NSD2 E1099K gain of function mutation. CGTH-W-1 (DSMZ) cells are maintained in RPM11640 media with 10% FBS and 50 U/ml Penicillin-Streptomycin.
Cells were treated with tested compounds at the desired concentration for 72 hours.
Histone bound plates were washed and blocked with 5% BSA. […] The abundance of H3K36me2 and total H3 was measured by Chemiluminesce on a plate reader. Cell viability was monitored on a parallel seeded plate with CellTiter-Glo reagent (Promega #G7573).

[2] = tested on: cellular H3K36me2 level in multiple myeloma cell line KMS11 (t(4;14)+); assay: H3K36me2 cellular ELISA assay in KMS11-Par line; type: cell-based; settings: Homo sapiens, KMS-11; KMS11-Par line (t(4;14)+), 72 hours treatment, ELISA; read-out: H3K36me2 ELISA in KMS11-Par
Outline: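 KMS11 cells were seeded a day ahead at 1,250 per well in Opti-MEM with B-27/N2, then treated with compound for 72 h. Histones were acid-extracted with 0.4M HCl, and H3K36me2 and total H3 were read by chemiluminescent ELISA. Viability was checked with CellTiter-Glo on a parallel plate in maintenance media.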

Chain of NSD2 [1-1365] (O96028 whole entry): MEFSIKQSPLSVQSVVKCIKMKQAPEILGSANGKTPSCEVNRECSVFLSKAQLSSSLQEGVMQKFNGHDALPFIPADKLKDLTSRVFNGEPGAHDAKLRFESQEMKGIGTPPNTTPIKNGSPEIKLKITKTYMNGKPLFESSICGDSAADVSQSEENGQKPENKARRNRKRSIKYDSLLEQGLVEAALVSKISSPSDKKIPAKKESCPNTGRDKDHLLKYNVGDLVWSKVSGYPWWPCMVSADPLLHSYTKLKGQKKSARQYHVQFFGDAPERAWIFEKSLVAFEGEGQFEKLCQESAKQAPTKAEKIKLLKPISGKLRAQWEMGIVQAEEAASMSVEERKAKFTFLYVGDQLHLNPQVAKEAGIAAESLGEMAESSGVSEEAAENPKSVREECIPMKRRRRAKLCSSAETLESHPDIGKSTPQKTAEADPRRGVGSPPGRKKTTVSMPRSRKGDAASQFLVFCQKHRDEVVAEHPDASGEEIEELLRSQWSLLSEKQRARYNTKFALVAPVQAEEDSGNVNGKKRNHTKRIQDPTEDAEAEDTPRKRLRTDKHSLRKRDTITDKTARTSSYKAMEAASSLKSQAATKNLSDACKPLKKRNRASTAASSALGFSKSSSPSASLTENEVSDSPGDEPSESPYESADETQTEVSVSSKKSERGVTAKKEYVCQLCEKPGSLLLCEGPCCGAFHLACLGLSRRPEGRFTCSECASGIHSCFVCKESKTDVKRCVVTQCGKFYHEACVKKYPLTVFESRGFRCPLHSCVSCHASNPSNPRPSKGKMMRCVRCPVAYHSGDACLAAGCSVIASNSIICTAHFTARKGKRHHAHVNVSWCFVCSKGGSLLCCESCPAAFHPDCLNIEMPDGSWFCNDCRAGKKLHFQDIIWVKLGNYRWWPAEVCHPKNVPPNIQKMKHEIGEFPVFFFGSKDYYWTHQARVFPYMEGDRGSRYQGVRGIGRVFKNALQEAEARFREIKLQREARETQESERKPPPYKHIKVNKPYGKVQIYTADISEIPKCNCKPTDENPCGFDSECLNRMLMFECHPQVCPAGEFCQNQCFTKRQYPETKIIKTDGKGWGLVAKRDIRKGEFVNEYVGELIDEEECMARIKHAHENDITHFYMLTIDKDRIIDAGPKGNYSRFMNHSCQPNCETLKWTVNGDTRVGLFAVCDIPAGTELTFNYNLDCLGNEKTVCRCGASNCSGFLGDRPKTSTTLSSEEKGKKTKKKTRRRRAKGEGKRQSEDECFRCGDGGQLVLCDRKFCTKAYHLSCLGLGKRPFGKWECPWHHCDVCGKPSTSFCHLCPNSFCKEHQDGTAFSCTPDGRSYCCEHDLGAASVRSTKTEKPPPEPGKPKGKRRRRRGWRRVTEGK

| SMILES | IC50 (NSD2 [1-1365]) [nM] | IC50 [1] [nM] | IC50 [2] [nM] |
| --- | --- | --- | --- |
| CC(C)[C@H](O)[C@@]1(N)CCCN(c2cnc(-c3ccc(F)c(F)c3)cc2Cn2cnc3c(N)ncnc32)C1 [Example 98, (S)-1-((R)-3-amino-1-(4-((6-amino-9H-purin-9-yl)methyl)-6-(3,4-difluorophenyl)pyridin-3-yl)piperidin-3-yl)-2-methylpropan-1-ol] | 10 to 1000 | 1500 | 6260 |
| CC[C@H](C)C(=O)[C@@]1(N)CCCN(c2cnc(-c3ccc(F)c(F)c3)cc2Cn2cnc3c(N)ncnc32)C1 [Example 101, (S)-1-((R)-3-amino-1-(4-((6-amino-9H-purin-9-yl)methyl)-6-(3,4-difluorophenyl)pyridin-3-yl)piperidin-3-yl)-2-methylbutan-1-one] | 1 to 10 | 40 | 34 |
| CC[C@@H](C)C(=O)[C@@]1(N)CCCN(c2cnc(-c3ccc(F)c(F)c3)cc2Cn2cnc3c(N)ncnc32)C1 [Example 102, (R)-1-((R)-3-amino-1-(4-((6-amino-9H-purin-9-yl)methyl)-6-(3,4-difluorophenyl)pyridin-3-yl)piperidin-3-yl)-2-methylbutan-1-one] | 10 to 1000 | 60 | 252 |
| CC(C(=O)C1(N)CCCN(c2cnc(-c3ccc(F)c(F)c3)cc2Cn2cnc3c(N)ncnc32)C1)C1CC1 (stereo not drawn) [Example 103, 1-(3-amino-1-(4-((6-amino-9H-purin-9-yl)methyl)-6-(3,4-difluorophenyl)pyridin-3-yl)piperidin-3-yl)-2-cyclopropylpropan-1-one] | 10 to 1000 | 138 | 379 |
| CC(C)C(=O)[C@@]1(N)CCCN(c2cnc(-c3ccc(F)c(F)c3)cc2Cn2cnc3c(N)ncnc32)C1 [Example 104, (R)-1-(3-amino-1-(4-((6-amino-9H-purin-9-yl)methyl)-6-(3,4-difluorophenyl)pyridin-3-yl)piperidin-3-yl)-2-methylpropan-1-one] | 10 to 1000 | 26 | 60 |
| Nc1ncnc2c1ncn2Cc1cc(-c2ccc(F)c(F)c2)ncc1N1CCCC(N)(C(=O)C2CCC2)C1 (stereo not drawn) [Example 105, (3-amino-1-(4-((6-amino-9H-purin-9-yl)methyl)-6-(3,4-difluorophenyl)pyridin-3-yl)piperidin-3-yl)(cyclobutyl)methanone] | 10 to 1000 | 67 | 140 |
| COC1CCC(C(=O)C2(N)CCCN(c3cnc(-c4ccc(F)c(F)c4)cc3Cn3cnc4c(N)ncnc43)C2)C1 (stereo not drawn) [Example 106, (3-amino-1-(4-((6-amino-9H-purin-9-yl)methyl)-6-(3,4-difluorophenyl)pyridin-3-yl)piperidin-3-yl)(3-methoxycyclopentyl)methanone] | 10 to 1000 | 501 | 1430 |
| CC1(C(=O)C2(N)CCCN(c3cnc(-c4ccc(F)c(F)c4)cc3Cn3cnc4c(N)ncnc43)C2)CC1 (stereo not drawn) [Example 107, (3-amino-1-(4-((6-amino-9H-purin-9-yl)methyl)-6-(3,4-difluorophenyl)pyridin-3-yl)piperidin-3-yl)(1-methylcyclopropyl)methanone] | 10 to 1000 | 446 | 3020 |
| Nc1ncnc2c1ncn2Cc1cc(-c2ccc(F)c(F)c2)ncc1N1CCCC(N)(C(=O)C2CCOCC2)C1 (stereo not drawn) [Example 108, (3-amino-1-(4-((6-amino-9H-purin-9-yl)methyl)-6-(3,4-difluorophenyl)pyridin-3-yl)piperidin-3-yl)(tetrahydro-2H-pyran-4-yl)methanone] | 10 to 1000 | 772 | 1960 |
| CC(C)(C)C(=O)[C@@]1(N)CCCN(c2cnc(-c3ccc(F)c(F)c3)cc2Cn2cnc3c(N)ncnc32)C1 [Example 109, (R)-1-(3-amino-1-(4-((6-amino-9H-purin-9-yl)methyl)-6-(3,4-difluorophenyl)pyridin-3-yl)piperidin-3-yl)-2,2-dimethylpropan-1-one] | 10 to 1000 | 2090 | 2730 |
| Cn1ccc(C(=O)C2(N)CCCN(c3cnc(-c4ccc(F)c(F)c4)cc3Cn3cnc4c(N)ncnc43)C2)n1 (stereo not drawn) [Example 110, (3-amino-1-(4-((6-amino-9H-purin-9-yl)methyl)-6-(3,4-difluorophenyl)pyridin-3-yl)piperidin-3-yl)(1-methyl-1H-pyrazol-3-yl)methanone] | 10 to 1000 | 1360 | 6340 |
| Nc1ncnc2c1ncn2Cc1cc(-c2ccc(F)c(F)c2)ncc1N1CCC[C@](N)([C@@H](O)C(F)F)C1 [Example 113, (R)-1-((R)-3-amino-1-(4-((6-amino-9H-purin-9-yl)methyl)-6-(3,4-difluorophenyl)pyridin-3-yl)piperidin-3-yl)-2,2-difluoroethan-1-ol] | 10 to 1000 | 145 | 753 |
| Nc1ncnc2c1ncn2Cc1cc(-c2ccc(F)c(F)c2)ncc1N1CCC[C@](N)([C@H](O)C(F)F)C1 [Example 114, (S)-1-((R)-3-amino-1-(4-((6-amino-9H-purin-9-yl)methyl)-6-(3,4-difluorophenyl)pyridin-3-yl)piperidin-3-yl)-2,2-difluoroethan-1-ol] | 10 to 1000 | 443 | 1940 |
| Cc1cc(C(F)F)ccc1-c1cc(Cn2cnc3c(N)ncnc32)c(N2CCC[C@](N)([C@@H](O)C(F)F)C2)cn1 [Example 115, (R)-1-((R)-3-amino-1-(4-((6-amino-9H-purin-9-yl)methyl)-6-(4-(difluoromethyl)-2-methylphenyl)pyridin-3-yl)piperidin-3-yl)-2,2-difluoroethan-1-ol] | 1 to 10 | 88 | 927 |
| Nc1ncnc2c1ncn2Cc1cc(-c2ccc(OC(F)F)c(F)c2)ncc1N1CCC[C@](N)([C@H](O)C(F)F)C1 [Example 116, (S)-1-((R)-3-amino-1-(4-((6-amino-9H-purin-9-yl)methyl)-6-(4-(difluoromethoxy)-3-fluorophenyl)pyridin-3-yl)piperidin-3-yl)-2,2-difluoroethan-1-ol] | 1 to 10 | 168 | 1350 |
| Cc1cc(F)c(F)cc1-c1cc(Cn2cnc3c(N)ncnc32)c(N2CCC[C@](N)([C@@H](O)C(F)F)C2)cn1 [Example 117, (R)-1-((R)-3-amino-1-(4-((6-amino-9H-purin-9-yl)methyl)-6-(4,5-difluoro-2-methylphenyl)pyridin-3-yl)piperidin-3-yl)-2,2-difluoroethan-1-ol] | 1 to 10 | 67 | 1320 |
| Nc1ncnc2c1ncn2Cc1cc(-c2ccc(OC(F)F)c(F)c2)ncc1N1CCC[C@](N)([C@@H](O)C(F)F)C1 [Example 119, (R)-1-((R)-3-amino-1-(4-((6-amino-9H-purin-9-yl)methyl)-6-(4-(difluoromethoxy)-3-fluorophenyl)pyridin-3-yl)piperidin-3-yl)-2,2-difluoroethan-1-ol] | 1 to 10 | 228 | 1490 |
| COc1ccc(-c2cc(Cn3cnc4c(N)ncnc43)c(N3CCC[C@](N)([C@@H](O)C(F)F)C3)cn2)cc1Cl [Example 121, (R)-1-((R)-3-amino-1-(4-((6-amino-9H-purin-9-yl)methyl)-6-(3-chloro-4-methoxyphenyl)pyridin-3-yl)piperidin-3-yl)-2,2-difluoroethan-1-ol] | 1 to 10 | 683 | 2610 |
| Nc1ncnc2c1ncn2Cc1cc(-c2ccc(F)c(Cl)c2)ncc1N1CCC[C@](N)([C@@H](O)C(F)F)C1 [Example 122, (R)-1-((R)-3-amino-1-(4-((6-amino-9H-purin-9-yl)methyl)-6-(3-chloro-4-fluorophenyl)pyridin-3-yl)piperidin-3-yl)-2,2-difluoroethan-1-ol] | 1 to 10 | 496 | 1830 |
| Cn1ncc2cc(-c3cc(Cn4cnc5c(N)ncnc54)c(N4CCC[C@](N)([C@@H](O)C(F)F)C4)cn3)c(F)cc21 [Example 123, (R)-1-((R)-3-amino-1-(4-((6-amino-9H-purin-9-yl)methyl)-6-(6-fluoro-1-methyl-1H-indazol-5-yl)pyridin-3-yl)piperidin-3-yl)-2,2-difluoroethan-1-ol] | 1 to 10 | 1490 | 7850 |
| Nc1ncnc2c1ncn2Cc1cc(-c2ccc(Cl)c(F)c2)ncc1N1CCC[C@](N)([C@@H](O)C(F)F)C1 [Example 124, (R)-1-((R)-3-amino-1-(4-((6-amino-9H-purin-9-yl)methyl)-6-(4-chloro-3-fluorophenyl)pyridin-3-yl)piperidin-3-yl)-2,2-difluoroethan-1-ol] | 1 to 10 | 159 | 848 |
